# Assay results: patent EP0195841A1, “Quinolinecarboxylic acid derivatives and process for their preparation” (KYORIN PHARMACEUTICAL CO., LTD., priority 1985, dated 1986)
# Where two headings read alike, the source gives them in different places.
# Experiments:
# Test in all cases: Antibacterial spectra, MIC by standard method of Japan Society of Chemotherapy
# Format in all cases: cell-based
# [1] = test system: Proteus vulgaris IFO 3167; details: Proteus vulgaris IFO 3167, Gram −, 10^6 cells/ml; for MIC: IFO3167, read-out: Minimum Inhibitory Concentration
# Shigella sonnei IID 969 = details: 10^6 cells/ml; for ratio of activity per that of Ciprofloxacin (bracketed number): Gram −; for MIC: IID969, Gram −, read-out: Minimum Inhibitory Concentration
# Method: Experiment 1. Antibacterial spectra
# Antibacterial activity was determined with the standard method recommended by Japan Society of Chemotherapy.
# [2] = test system: Staphylococcus aureus 209 P; details: Gram +, 10^6 cells/ml; for MIC: read-out: Minimum Inhibitory Concentration
# [3] = test system: Yersinia enterocolitica IID 981; details: 10^6 cells/ml; for ratio of activity per that of Ciprofloxacin (bracketed number): Gram −; for MIC: IID981, Gram −, read-out: Minimum Inhibitory Concentration
# [4] = test system: Salmonella enteritidis IID 604; details: Gram −, 10^6 cells/ml; for MIC: Salmonella enterica, read-out: Minimum Inhibitory Concentration
# [5] = test system: Acinetobacter anitratus IID 876; details: 10^6 cells/ml; for MIC: Acinetobacter calcoaceticus, IID876, Gram −, read-out: Minimum Inhibitory Concentration; for ratio of activity per that of Ciprofloxacin (bracketed number): Gram −
# E. coli ATCC 10536 = details: 10^6 cells/ml; for MIC: Escherichia coli, ATCC10536, Gram −, read-out: Minimum Inhibitory Concentration; for ratio of activity per that of Ciprofloxacin (bracketed number): Gram −
# [6] = test system: Bacteroides fragilis GM 7000; details: 10^6 cells/ml; for MIC: GM7000, Gram −, read-out: Minimum Inhibitory Concentration; for ratio of activity per that of Ciprofloxacin (bracketed number): Gram −
# [7] = test system: Bacillus subtilis PCI 219; details: 10^6 cells/ml; for MIC: PCI219, Gram +, read-out: Minimum Inhibitory Concentration
# [8] = test system: Streptococcus pyogenes IID 692; details: 10^6 cells/ml; for ratio of activity per that of Ciprofloxacin (bracketed number): Gram +; for MIC: IID692, Gram +, read-out: Minimum Inhibitory Concentration
# P. morganii IID 602 = details: 10^6 cells/ml; for MIC: Morganella morganii, IID602, Gram −, read-out: Minimum Inhibitory Concentration
# [9] = test system: Citrobacter freundii IID 976; details: 10^6 cells/ml; for ratio of activity per that of Ciprofloxacin (bracketed number): Gram −; for MIC: IID976, Gram −, read-out: Minimum Inhibitory Concentration
# [10] = test system: S. pyogenes IID 689 (S-8); details: 10^6 cells/ml; for ratio of activity per that of Ciprofloxacin (bracketed number): Gram +; for MIC: Streptococcus pyogenes, IID689, Gram +, read-out: Minimum Inhibitory Concentration
# [11] = test system: Enterobacter cloacae IID 977; details: 10^6 cells/ml; for ratio of activity per that of Ciprofloxacin (bracketed number): Gram −; for MIC: IID977, Gram −, read-out: Minimum Inhibitory Concentration
# [12] = test system: S. aureus IID 670 (Terajima); details: 10^6 cells/ml; for ratio of activity per that of Ciprofloxacin (bracketed number): Gram +; for MIC: Staphylococcus aureus, IID670, Gram +, read-out: Minimum Inhibitory Concentration
# [13] = test system: Serratia marcescens IID 618; details: 10^6 cells/ml; for ratio of activity per that of Ciprofloxacin (bracketed number): Gram −; for MIC: IID618, Gram −, read-out: Minimum Inhibitory Concentration
# [14] = test system: Pseudomonas aeruginosa V-1; details: 10^6 cells/ml; for ratio of activity per that of Ciprofloxacin (bracketed number): Gram −; for MIC: V1, Gram −, read-out: Minimum Inhibitory Concentration
# [15] = test system: Pseudomonas aeruginosa IFO 12689; details: 10^6 cells/ml; for ratio of activity per that of Ciprofloxacin (bracketed number): Gram −; for MIC: IFO12689, Gram −, read-out: Minimum Inhibitory Concentration
# S. faecalis IID 682 = details: 10^6 cells/ml; for MIC: Enterococcus faecalis, IID682, Gram +, read-out: Minimum Inhibitory Concentration
# P. mirabilis IID 994 = details: 10^6 cells/ml; for ratio of activity per that of Ciprofloxacin (bracketed number): Gram −; for MIC: Proteus mirabilis, IID994, Gram −, read-out: Minimum Inhibitory Concentration
# [16] = test system: Klebsiella pneumoniae KY 6445; details: 10^6 cells/ml; for ratio of activity per that of Ciprofloxacin (bracketed number): Gram −; for MIC: KY6445, Gram −, read-out: Minimum Inhibitory Concentration
# [17] = test system: Bacteroides fragilis 0558; details: Gram −, 10^6 cells/ml; for MIC: read-out: Minimum Inhibitory Concentration
# E. coli NIHJ JC-2 = details: for MIC: Escherichia coli
# [18] = test system: Bacteroides fragilis 25285; details: Gram −, 10^6 cells/ml; for MIC: read-out: Minimum Inhibitory Concentration
# S. epidermidis IID 866 = details: 10^6 cells/ml; for ratio of activity per that of Ciprofloxacin (bracketed number): Gram +; for MIC: Staphylococcus epidermidis, IID866, Gram +, read-out: Minimum Inhibitory Concentration
# [19] = test system: Alcaligenes faecalis 0104002; details: Gram −, 10^6 cells/ml; for MIC: read-out: Minimum Inhibitory Concentration
# S. pneumoniae 2054 = details: Gram +, 10^6 cells/ml; for MIC: Streptococcus pneumoniae, read-out: Minimum Inhibitory Concentration
# [20] = E. coli NIHJ JC-2, Gram −, 10^6 cells/ml
compound,measurement,setting,value
"O=C(O)c1cn(C2CC2)c2c(Cl)c(N3CCNCC3)c(F)cc2c1=O [Example 25, 8-Chloro-l-cyclopropyl-6-fluoro-l,4-dihydro-4-oxo-7-(1-piperazinyl)quinoline-3-carboxylic acid]",MIC,[1],≤ 0.006 mg/L
same,ratio of activity per that of Ciprofloxacin (bracketed number),[1],1
same,ratio of activity per that of Ciprofloxacin (bracketed number),Shigella sonnei IID 969,1
same,MIC,Shigella sonnei IID 969,≤ 0.006 mg/L
same,ratio of activity per that of Ciprofloxacin (bracketed number),[2],8
same,MIC,[2],0.05 mg/L
same,ratio of activity per that of Ciprofloxacin (bracketed number),[3],2
same,MIC,[3],0.025 mg/L
same,ratio of activity per that of Ciprofloxacin (bracketed number),[4],2
same,MIC,[4],0.0125 mg/L
same,MIC,[5],0.05 mg/L
same,ratio of activity per that of Ciprofloxacin (bracketed number),[5],0.5
same,MIC,E. coli ATCC 10536,≤ 0.006 mg/L
same,ratio of activity per that of Ciprofloxacin (bracketed number),E. coli ATCC 10536,2
same,MIC,[6],0.39 mg/L
same,ratio of activity per that of Ciprofloxacin (bracketed number),[6],8
same,MIC,[7],0.0125 mg/L
same,ratio of activity per that of Ciprofloxacin (bracketed number),[8],2
same,MIC,[8],0.39 mg/L
same,MIC,P. morganii IID 602,0.0125 mg/L
same,ratio of activity per that of Ciprofloxacin (bracketed number),[9],0.5
same,MIC,[9],0.0125 mg/L
same,ratio of activity per that of Ciprofloxacin (bracketed number),[10],2
same,MIC,[10],0.2 mg/L
same,ratio of activity per that of Ciprofloxacin (bracketed number),[11],2
same,MIC,[11],0.025 mg/L
same,ratio of activity per that of Ciprofloxacin (bracketed number),[12],4
same,MIC,[12],0.1 mg/L
same,ratio of activity per that of Ciprofloxacin (bracketed number),[13],16
same,MIC,[13],0.025 mg/L
same,ratio of activity per that of Ciprofloxacin (bracketed number),[14],4
same,MIC,[14],0.05 mg/L
same,ratio of activity per that of Ciprofloxacin (bracketed number),[15],1
same,MIC,[15],0.39 mg/L
same,MIC,S. faecalis IID 682,0.2 mg/L
same,ratio of activity per that of Ciprofloxacin (bracketed number),P. mirabilis IID 994,1
same,MIC,P. mirabilis IID 994,0.0125 mg/L
same,ratio of activity per that of Ciprofloxacin (bracketed number),[16],1
same,MIC,[16],0.0125 mg/L
same,ratio of activity per that of Ciprofloxacin (bracketed number),[17],16
same,MIC,[17],0.2 mg/L
same,ratio of activity per that of Ciprofloxacin (bracketed number),E. coli NIHJ JC-2; [20],1
same,MIC,"E. coli NIHJ JC-2; NIHJJC2, E. coli NIHJ JC-2, Gram −, 10^6 cells/ml, read-out: Minimum Inhibitory Concentration",≤ 0.006 mg/L
same,ratio of activity per that of Ciprofloxacin (bracketed number),[18],16
same,MIC,[18],0.2 mg/L
same,ratio of activity per that of Ciprofloxacin (bracketed number),S. epidermidis IID 866,8
same,MIC,S. epidermidis IID 866,0.05 mg/L
same,ratio of activity per that of Ciprofloxacin (bracketed number),[19],2
same,MIC,[19],0.02 mg/L
same,ratio of activity per that of Ciprofloxacin (bracketed number),S. pneumoniae 2054,4
same,MIC,S. pneumoniae 2054,0.39 mg/L
"CN1CCN(c2c(F)cc3c(=O)c(C(=O)O)cn(C4CC4)c3c2F)CC1 [Reference- 2, 1-Cyclopropyl-6,8-difluoro-1,4-dihydro-7-(4-methyl-1-piperazinyl)-4-oxoquinoline-3-carboxylic acid, reference compound]",MIC,[1],0.025 mg/L
same,ratio of activity per that of Ciprofloxacin (bracketed number),[1],0.25
same,ratio of activity per that of Ciprofloxacin (bracketed number),Shigella sonnei IID 969,0.5
same,MIC,Shigella sonnei IID 969,0.0125 mg/L
same,ratio of activity per that of Ciprofloxacin (bracketed number),[2],4
same,MIC,[2],0.1 mg/L
same,ratio of activity per that of Ciprofloxacin (bracketed number),[3],1
same,MIC,[3],0.05 mg/L
same,ratio of activity per that of Ciprofloxacin (bracketed number),[4],0.5
same,MIC,[4],0.05 mg/L
same,MIC,[5],0.0125 mg/L
same,ratio of activity per that of Ciprofloxacin (bracketed number),[5],2
same,MIC,E. coli ATCC 10536,0.0125 mg/L
same,ratio of activity per that of Ciprofloxacin (bracketed number),E. coli ATCC 10536,1
same,MIC,[6],0.78 mg/L
same,ratio of activity per that of Ciprofloxacin (bracketed number),[6],4
same,ratio of activity per that of Ciprofloxacin (bracketed number),[7]; Gram +,1
same,MIC,[7],0.05 mg/L
same,ratio of activity per that of Ciprofloxacin (bracketed number),[8],1
same,MIC,[8],0.78 mg/L
same,ratio of activity per that of Ciprofloxacin (bracketed number),P. morganii IID 602; Gram −,1
same,MIC,P. morganii IID 602,0.05 mg/L
same,ratio of activity per that of Ciprofloxacin (bracketed number),[9],0.25
same,MIC,[9],0.025 mg/L
same,ratio of activity per that of Ciprofloxacin (bracketed number),[10],0.5
same,MIC,[10],0.78 mg/L
same,ratio of activity per that of Ciprofloxacin (bracketed number),[11],1
same,MIC,[11],0.05 mg/L
same,ratio of activity per that of Ciprofloxacin (bracketed number),[12],2
same,MIC,[12],0.2 mg/L
same,ratio of activity per that of Ciprofloxacin (bracketed number),[13],1
same,MIC,[13],0.39 mg/L
same,ratio of activity per that of Ciprofloxacin (bracketed number),[14],0.5
same,MIC,[14],0.39 mg/L
same,ratio of activity per that of Ciprofloxacin (bracketed number),[15],1
same,MIC,[15],0.39 mg/L
same,MIC,S. faecalis IID 682,0.78 mg/L
same,ratio of activity per that of Ciprofloxacin (bracketed number),S. faecalis IID 682; Gram +,1
same,ratio of activity per that of Ciprofloxacin (bracketed number),P. mirabilis IID 994,0.5
same,MIC,P. mirabilis IID 994,0.025 mg/L
same,ratio of activity per that of Ciprofloxacin (bracketed number),[16],1
same,MIC,[16],0.0125 mg/L
same,MIC,[17],0.39 mg/L
same,ratio of activity per that of Ciprofloxacin (bracketed number),E. coli NIHJ JC-2; [20],0.5
same,MIC,"E. coli NIHJ JC-2; NIHJJC2, read-out: Minimum Inhibitory Concentration",0.0125 mg/L
same,ratio of activity per that of Ciprofloxacin (bracketed number),[18],8
same,MIC,[18],0.39 mg/L
same,ratio of activity per that of Ciprofloxacin (bracketed number),S. epidermidis IID 866,2
same,MIC,S. epidermidis IID 866,0.2 mg/L
same,MIC,[19],0.02 mg/L
same,ratio of activity per that of Ciprofloxacin (bracketed number),S. pneumoniae 2054,2
same,MIC,S. pneumoniae 2054,0.78 mg/L
